According to BindingDB's records for doi:10.1021/jm970397q (Merck Research Laboratories, 1997):
Where a name gives a salt, the structure may show the parent alone.

Biological target: Prothrombin (Homo sapiens, UniProt P00734)
Assay: Inhibition of Thrombin
Settings: read-out: kon (M-1-s-1)

| SMILES | kon [M⁻¹ s⁻¹] |
| --- | --- |
| NC1CCC(CNC(=O)[C@@H]2CCCN2C(=O)CC(c2ccccc2)c2ccncc2)CC1 (stereo partly drawn) [(S)-1-(3-Phenyl-3-pyridin-4-yl-propionyl)-pyrrolidine-2-carboxylic acid (4-amino-cyclohexylmethyl)-amide; TFA] | 1.55e+08 |
| NC1CCC(CNC(=O)[C@@H]2CCCN2C(=O)CC(c2ccccc2)c2ccccc2)CC1 (stereo partly drawn) [(S)-1-(3,3-Diphenyl-propionyl)-pyrrolidine-2-carboxylic acid (4-amino-cyclohexylmethyl)-amide; TFA] | 2.1e+08 |
| NC1CCC(CNC(=O)[C@@H]2CCCN2C(=O)CC(C2CCCCC2)C2CCCCC2)CC1 (stereo partly drawn) [(S)-1-(3,3-Dicyclohexyl-propionyl)-pyrrolidine-2-carboxylic acid (4-amino-cyclohexylmethyl)-amide; hydrochloride] | 2.3e+08 |
| NC1CCC(CNC(=O)[C@@H]2CCCN2C(=O)CC(c2cccnc2)c2ccc3c(c2)OCO3)CC1 (stereo partly drawn) [(S)-1-(3-Benzo[1,3]dioxol-5-yl-3-pyridin-3-yl-propionyl)-pyrrolidine-2-carboxylic acid (4-amino-cyclohexylmethyl)-amide; TFA] | 2.51e+08 |
| NC1CCC(CNC(=O)[C@@H]2CCCN2C(=O)CC(c2ccccc2)c2ccccn2)CC1 (stereo partly drawn) [(S)-1-(3-Phenyl-3-pyridin-2-yl-propionyl)-pyrrolidine-2-carboxylic acid (4-amino-cyclohexylmethyl)-amide; TFA] | 1.8e+08 |
| NC1CCC(CNC(=O)[C@@H]2CCCN2C(=O)CC2c3ccccc3C=Cc3ccccc32)CC1 (stereo partly drawn) [(S)-1-(2-5H-Dibenzo[a,d]cyclohepten-5-yl-acetyl)-pyrrolidine-2-carboxylic acid (4-amino-cyclohexylmethyl)-amide; hydrochloride] | 1.8e+08 |
| NC1CCC(CNC(=O)[C@@H]2CCCN2C(=O)CC(c2ccccc2)c2cccnc2)CC1 (stereo partly drawn) [(S)-1-(3-Phenyl-3-pyridin-3-yl-propionyl)-pyrrolidine-2-carboxylic acid (4-amino-cyclohexylmethyl)-amide; TFA] | 2.1e+08 |
